This note sets out measurements from DBAASP.

Each structure is given as a SMILES string. Converted amounts (≈) assume the structure as drawn. A value given as a limit tells only on which side of the number the result lay.

Common to all, as to test: ≥ marks a high value that may be exact or a test limit, other limits are often not marked, values filed in µg/mL are converted to µM
Assay [1] deals with Pseudomonas aeruginosa PAO1.
Assay [2] relates to Bacillus licheniformis VK21.
Assay [3] concerns Escherichia coli C600.
For assay [4], the system named is Bacillus subtilis VKM B-886.
The subject of assay [5] is Escherichia coli BL21(DE3).
The test system of assay [6] is Escherichia coli ML-35p.
In assay [7] the test system is Staphylococcus aureus 209P.
Assay [8] concerns Acinetobacter baumannii.
Assay [9] has as its system Micrococcus luteus VKM B-1314.
Assay [10] concerns Bacillus megaterium VKM41.
Assay [11] has as its system Staphylococcus aureus ATCC 29213.
Assay [12] relates to Klebsiella oxytoca ATCC 13182.
Assay [13] has as its system Klebsiella pneumoniae ATCC 700603.
The test system of assay [14] is Escherichia coli ATCC 35218.
The test system of assay [15] is Serratia marcescens ATCC 13880.
The test system of assay [16] is Staphylococcus aureus ATCC 80958.
For assay [17], the system named is Escherichia coli ESBL.
In assay [18] the test system is Candida albicans ATCC 14053.
Assay [19] has as its system Escherichia coli ATCC 43827.
Assay [20] deals with Escherichia coli ATCC 25922.
Assay [21] relates to Candida glabrata ATCC 2001.
Assay [22] concerns Pseudomonas aeruginosa ATCC 27853.
Assay [23] concerns Candida parapsilosis ATCC 22019.
The test system of assay [24] is Pseudomonas aeruginosa.
In assay [25] the test system is Staphylococcus aureus MR.
The subject of assay [26] is Candida tropicalis ATCC 750.
In assay [27] the test system is Bacillus subtilis ATCC 23857.
Assay [28] relates to Cronobacter sakazakii ATCC 29544.
Assay [29] deals with Candida krusei ATCC 6258.
The subject of assay [30] is Staphylococcus epidermidis ATCC 12228.
The subject of assay [31] is Penicillium expansum.
Assay [32] concerns Aspergillus niger.
Assay [33] relates to Bacillus cereus ATCC 10876.
Assay [34] deals with Streptococcus iniae KCTC 3657.
Assay [35] deals with Salmonella enterica subsp. enterica serovar Typhimurium ATCC 14028.
The subject of assay [36] is Enterococcus faecalis ATCC 51575.
Assay [37] concerns Enterococcus faecium KCCM 12118.
In assay [38] the test system is Staphylococcus aureus KCCM 40510.
Assay [39] has as its system Staphylococcus aureus KCTC 1621.
Assay [40] concerns Escherichia coli KCTC 1682.
For assay [41], the system named is Staphylococcus epidermidis KCTC 1917.
Assay [42] has as its system Salmonella typhimurium KCTC 1926.
The subject of assay [43] is Enterococcus faecium ATCC 51559.
The test system of assay [44] is Bacillus subtilis KCTC 3068.
Assay [45] has as its system Pseudomonas aeruginosa KCTC 1637.
For assay [46], the system named is Enterococcus faecalis KCCM 29212.

Broadly, the MIC is the lowest concentration found to suppress growth. Low readings indicate a more susceptible organism, high ones a less susceptible organism. Take `CC[C@H](C)[C@H](NC(=O)[C@H](C)NC(=O)[C@@H](NC(=O)CNC(=O)[C@@H](NC(=O)[C@H](CC(N)=O)NC(=O)[C@H](CCCCN)NC(=O)[C@H](C)NC(=O)CNC(=O)[C@H](CC(=O)O)NC(=O)[C@H](Cc1c[nH]c2ccccc12)NC(=O)[C@@H](NC(=O)[C@H](CO)NC(=O)[C@H](CO)NC(=O)[C@H](Cc1c[nH]c2ccccc12)NC(=O)[C@H](Cc1ccccc1)NC(=O)CN)C(C)C)C(C)C)[C@@H](C)O)C(=O)O` [GFWSSVWDGAKNVGTAI]: the MIC in assay [1] was over 64 µM; in [2], 16 µM (≈ 28.7 µg/mL); in assay [3], at least 64 µM; in assay [4] it was 16 µM (≈ 28.7 µg/mL); in assay [5], at least 64 µM; in [6], at least 64 µM. For the same molecule, the MIC is 16 µM (≈ 28.7 µg/mL) in assay [7]; at least 64 µM in [8]; 16 µM (≈ 28.7 µg/mL) in assay [9]; 16 µM (≈ 28.7 µg/mL) in assay [10]; over 16 µM in assay [11].
As to `CC[C@H](C)[C@H](NC(=O)[C@H](Cc1ccc(O)cc1)NC(=O)[C@H](Cc1ccc(O)cc1)NC(=O)[C@H](CO)NC(=O)CNC(=O)CNC(=O)[C@H](CC(N)=O)NC(=O)[C@H](CCCN=C(N)N)NC(=O)[C@H](CC(C)C)NC(=O)[C@H](Cc1ccccc1)NC(=O)[C@H](CC(N)=O)NC(=O)CN)C(=O)N[C@H](C(=O)N1CCC[C@H]1C(=O)N[C@@H](C)C(=O)N[C@@H](Cc1ccccc1)C(=O)N[C@@H](CCCN=C(N)N)C(=O)NCC(=O)O)C(C)C` [GNFLRNGGSYYIVPAFRG], the MIC in assay [12] is 30 µM (≈ 59.6 µg/mL); in [13] it was over 30 µM; in [14], 30 µM (≈ 59.6 µg/mL); in assay [15] it was 30 µM (≈ 59.6 µg/mL); in assay [16], 30 µM (≈ 59.6 µg/mL).
Regarding `CC(C)C[C@H](NC(=O)[C@H](Cc1cnc[nH]1)NC(=O)[C@H](CC(C)C)NC(=O)[C@H](CO)NC(=O)[C@H](CC(C)C)NC(=O)[C@H](CCCCN)NC(=O)[C@H](Cc1ccccc1)NC(=O)[C@@H]1CCCN1)C(N)=O` [PFKLSLHL], the MIC is at least 32 µM in assay [17]; at least 63.9 µM in assay [18]; at least 32 µM in assay [19]; 32 µM (≈ 30.5 µg/mL) in [20]; 31.4 µM (≈ 30 µg/mL) in [21]; 64 µM (≈ 61 µg/mL) in assay [13]. The MIC in assay [22] is 32 µM (≈ 30.5 µg/mL); in assay [23] it was at least 63.9 µM; in assay [24], 32 µM (≈ 30.5 µg/mL); in assay [25], at least 128 µM; in assay [26], 15.7 µM (≈ 15 µg/mL); in assay [27] it was at least 32 µM. Further, the MIC is at least 64 µM in assay [28], 31.4 µM (≈ 30 µg/mL) in assay [29], 64 µM (≈ 61 µg/mL) in assay [30] and 128 µM (≈ 122 µg/mL) in [11].
Turning to `CC(C)C[C@H](NC(=O)[C@H](Cc1ccccc1)NC(=O)[C@H](CCCN=C(N)N)NC(=O)[C@@H]1CCCN1C(=O)[C@H](C)NC(=O)[C@H](Cc1c[nH]c2ccccc12)NC(=O)[C@H](Cc1c[nH]c2ccccc12)NC(=O)[C@H](C)NC(=O)[C@H](CCCN=C(N)N)NC(=O)[C@H](Cc1ccccc1)NC(=O)[C@H](Cc1ccccc1)NC(=O)[C@H](CCCCN)NC(=O)[C@@H](N)CCCCN)C(=O)N[C@@H](CCCCN)C(N)=O` [KKFFRAWWAPRFLK], the values for the MIC in assay [31] and in assay [32] were 13.3 µM (≈ 25 µg/mL) and 26.6 µM (≈ 50 µg/mL), respectively.
For the molecule `CC[C@H](C)[C@H](NC(=O)[C@H](Cc1ccccc1)NC(=O)[C@@H](NC(=O)[C@H](CCCCN)NC(=O)[C@@H](NC(=O)[C@H](CCCCN)NC(=O)[C@H](CCCCN)NC(=O)[C@H](Cc1ccccc1)NC(=O)[C@@H](NC(=O)[C@H](CCCCN)NC(=O)[C@H](CCCN=C(N)N)NC(=O)[C@H](Cc1ccccc1)NC(=O)CNC(=O)[C@H](CCCCN)NC(=O)[C@H](CCCCN)NC(=O)[C@@H](NC(=O)[C@H](CCCCN)NC(=O)[C@H](CCCN=C(N)N)NC(=O)[C@H](Cc1ccccc1)NC(=O)[C@H](Cc1ccccc1)NC(=O)[C@H](CCCCN)NC(=O)[C@H](CCCCN)NC(=O)[C@H](Cc1ccccc1)NC(=O)[C@H](CCCN=C(N)N)NC(=O)[C@H](CCCCN)NC(=O)[C@@H](NC(=O)[C@@H](N)CCCN=C(N)N)C(C)C)[C@@H](C)CC)[C@@H](C)CC)[C@@H](C)O)[C@@H](C)CC)C(=O)NCC(=O)O` [RVKRFKKFFRKIKKGFRKIFKKTKIFIG], the MIC is 0.559 µM (≈ 2 µg/mL) in assay [20]; 0.839 µM (≈ 3 µg/mL) in assay [22]; 12.9 µM (≈ 46 µg/mL) in assay [33]; 8.95 µM (≈ 32 µg/mL) in [34]; over 35.8 µM in assay [11]; 0.42 µM (≈ 1.5 µg/mL) in [35].
As to `CC[C@H](C)[C@H](NC(=O)[C@H](CC(C)C)NC(=O)[C@H](CC(C)C)NC(=O)[C@@H](N)CC(C)C)C(=O)N[C@H](C(=O)N[C@@H](CC(C)C)C(=O)N[C@@H](CCCN=C(N)N)C(=O)N[C@@H](CCCCN)C(=O)N[C@@H](CCCCN)C(N)=O)C(C)C` [LLLIVLRKK], the MIC turned out to be 3.65 µM (≈ 4 µg/mL) in assay [36]; 1.83 µM (≈ 2 µg/mL) in assay [37]; 3.65 µM (≈ 4 µg/mL) in assay [38]; 3.65 µM (≈ 4 µg/mL) in [39]; 3.65 µM (≈ 4 µg/mL) in assay [40]; 3.65 µM (≈ 4 µg/mL) in assay [41]. In addition, the MIC in assay [42] worked out at 3.65 µM (≈ 4 µg/mL); in assay [43], 0.913 µM (≈ 0.999 µg/mL); in assay [44], 1.83 µM (≈ 2 µg/mL); in [45], 7.3 µM (≈ 7.99 µg/mL); in [46] it was 1.83 µM (≈ 2 µg/mL).
